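Here, GI50 denotes the concentration required for 50% inhibition of growth. TGI is the concentration that stops growth completely.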
How the values were obtained:
Assay in all cases: NCI-60 cell line screen, 384-well format
786-0 renal = system: 786-0 renal
A498 renal = system: A498 renal
A549 NSCLC = system: A549 NSCLC
ACHN renal = system: ACHN renal
BT-549 breast = system: BT-549 breast
CAKI-1 renal = system: CAKI-1 renal
COLO 205 colon = system: COLO 205 colon
DU-145 prostate = system: DU-145 prostate
EKVX NSCLC = system: EKVX NSCLC
HCC-2998 colon = system: HCC-2998 colon
HCT-116 colon = system: HCT-116 colon
HCT-15 colon = system: HCT-15 colon
HL-60(TB) leukemia = system: HL-60(TB) leukemia
HOP-62 NSCLC = system: HOP-62 NSCLC
HOP-92 NSCLC = system: HOP-92 NSCLC
HS 578T breast = system: HS 578T breast
HT29 colon = system: HT29 colon
IGROV1 ovarian = system: IGROV1 ovarian
KM12 colon = system: KM12 colon
LOX IMVI melanoma = system: LOX IMVI melanoma
M14 melanoma = system: M14 melanoma
MALME-3M melanoma = system: MALME-3M melanoma
MCF7 breast = system: MCF7 breast
MDA-MB-231 breast = system: MDA-MB-231 breast
MDA-MB-435 melanoma = system: MDA-MB-435 melanoma
MDA-MB-468 breast = system: MDA-MB-468 breast
MOLT-4 leukemia = system: MOLT-4 leukemia
NCI-H226 lung = system: NCI-H226 lung
NCI-H23 lung = system: NCI-H23 lung
NCI-H322M lung = system: NCI-H322M lung
NCI-H460 NSCLC = system: NCI-H460 NSCLC
NCI-H522 lung = system: NCI-H522 lung
NCI/ADR-RES ovarian = system: NCI/ADR-RES ovarian
OVCAR-3 ovarian = system: OVCAR-3 ovarian
OVCAR-4 ovarian = system: OVCAR-4 ovarian
OVCAR-5 ovarian = system: OVCAR-5 ovarian
OVCAR-8 ovarian = system: OVCAR-8 ovarian
PC-3 prostate = system: PC-3 prostate
RPMI-8226 leukemia = system: RPMI-8226 leukemia
RXF 393 renal = system: RXF 393 renal
SF-268 CNS = system: SF-268 CNS
SF-295 CNS = system: SF-295 CNS
SF-539 CNS = system: SF-539 CNS
SK-MEL-28 melanoma = system: SK-MEL-28 melanoma
SK-MEL-5 melanoma = system: SK-MEL-5 melanoma
SK-OV-3 ovarian = system: SK-OV-3 ovarian
SN12C renal = system: SN12C renal
SNB-19 CNS = system: SNB-19 CNS
SNB-75 CNS = system: SNB-75 CNS
SR leukemia = system: SR leukemia
SW-620 colon = system: SW-620 colon
T-47D breast = system: T-47D breast
TK-10 renal = system: TK-10 renal
U251 glioblastoma = system: U251 glioblastoma
UACC-257 melanoma = system: UACC-257 melanoma
UACC-62 melanoma = system: UACC-62 melanoma
UO-31 renal = system: UO-31 renal

`COc1cc2nccc(Oc3ccc(NC(=O)NC4CC4)c(Cl)c3)c2cc1C(N)=O` was tested, and the GI50 (786-0 renal) was 22.9 µM, the TGI (786-0 renal) was > 100 µM and the GI50 (A498 renal) was 22 µM. The TGI (A498 renal) was 69.6 µM, the GI50 (A549 NSCLC) was 40 µM and the TGI (A549 NSCLC) was > 100 µM. For the same compound, the GI50 (ACHN renal) was 11.6 µM, the TGI (ACHN renal) was 24.2 µM and the GI50 (BT-549 breast) was 3.76 µM. The TGI (BT-549 breast) was 20.4 µM, the GI50 (CAKI-1 renal) was 9.97 µM and the TGI (CAKI-1 renal) was 35.1 µM. The GI50 (COLO 205 colon) was 69.5 µM, the TGI (COLO 205 colon) was > 100 µM and the GI50 (DU-145 prostate) was 26.1 µM. For the same compound, the TGI (DU-145 prostate) was > 100 µM, the GI50 (EKVX NSCLC) was 29.1 µM and the TGI (EKVX NSCLC) was > 100 µM. For the same compound, the GI50 (HCC-2998 colon) was > 100 µM, the TGI (HCC-2998 colon) was > 100 µM and the GI50 (HCT-116 colon) was 38.3 µM. The TGI (HCT-116 colon) was > 100 µM, the GI50 (HCT-15 colon) was 25.8 µM and the TGI (HCT-15 colon) was > 100 µM. It also gave a GI50 (HL-60(TB) leukemia) of 25.6 µM, a TGI (HL-60(TB) leukemia) of 68.9 µM and a GI50 (HOP-62 NSCLC) of 38.2 µM. The TGI (HOP-62 NSCLC) was > 100 µM, the GI50 (HOP-92 NSCLC) was 14.5 µM and the TGI (HOP-92 NSCLC) was 72.1 µM. For the same compound, the GI50 (HS 578T breast) was 12.2 µM, the TGI (HS 578T breast) was 28 µM and the GI50 (HT29 colon) was > 100 µM. For the same compound, the TGI (HT29 colon) was > 100 µM, the GI50 (IGROV1 ovarian) was 19.2 µM and the TGI (IGROV1 ovarian) was 97.3 µM. For the same compound, the GI50 (KM12 colon) was 5.76 µM, the TGI (KM12 colon) was > 100 µM and the GI50 (LOX IMVI melanoma) was 52.2 µM. The TGI (LOX IMVI melanoma) was > 100 µM, the GI50 (M14 melanoma) was 23.4 µM and the TGI (M14 melanoma) was 64.9 µM. The GI50 (MALME-3M melanoma) was 19.3 µM, the TGI (MALME-3M melanoma) was 77.8 µM and the GI50 (MCF7 breast) was 35.4 µM. The TGI (MCF7 breast) was > 100 µM, the GI50 (MDA-MB-231 breast) was 17.3 µM and the TGI (MDA-MB-231 breast) was 59.4 µM. The GI50 (MDA-MB-435 melanoma) was 74.1 µM, the TGI (MDA-MB-435 melanoma) was > 100 µM and the GI50 (MDA-MB-468 breast) was 11.5 µM. The TGI (MDA-MB-468 breast) was 66.2 µM, the GI50 (MOLT-4 leukemia) was 5.38 µM and the TGI (MOLT-4 leukemia) was 23.3 µM. For the same compound, the GI50 (NCI-H226 lung) was 0.817 µM, the TGI (NCI-H226 lung) was 22.2 µM and the GI50 (NCI-H23 lung) was 14.2 µM. For the same compound, the TGI (NCI-H23 lung) was 55.8 µM, the GI50 (NCI-H322M lung) was 48.3 µM and the TGI (NCI-H322M lung) was > 100 µM. For the same compound, the GI50 (NCI-H460 NSCLC) was 41 µM, the TGI (NCI-H460 NSCLC) was > 100 µM and the GI50 (NCI-H522 lung) was 5.29 µM. The TGI (NCI-H522 lung) was 20.6 µM, the GI50 (NCI/ADR-RES ovarian) was 63.8 µM and the TGI (NCI/ADR-RES ovarian) was > 100 µM. The GI50 (OVCAR-3 ovarian) was 17.9 µM, the TGI (OVCAR-3 ovarian) was 78 µM and the GI50 (OVCAR-4 ovarian) was 14.7 µM. For the same compound, the TGI (OVCAR-4 ovarian) was 44.7 µM, the GI50 (OVCAR-5 ovarian) was 50 µM and the TGI (OVCAR-5 ovarian) was > 100 µM. For the same compound, the GI50 (OVCAR-8 ovarian) was 25.5 µM, the TGI (OVCAR-8 ovarian) was > 100 µM and the GI50 (PC-3 prostate) was 61.7 µM. For the same compound, the TGI (PC-3 prostate) was > 100 µM, the GI50 (RPMI-8226 leukemia) was 11.7 µM and the TGI (RPMI-8226 leukemia) was 63 µM. For the same compound, the GI50 (RXF 393 renal) was 3.53 µM, the TGI (RXF 393 renal) was 25.1 µM and the GI50 (SF-268 CNS) was 15.9 µM. The TGI (SF-268 CNS) was 44.6 µM, the GI50 (SF-295 CNS) was 30.1 µM and the TGI (SF-295 CNS) was > 100 µM. It also gave a GI50 (SF-539 CNS) of 2.41 µM, a TGI (SF-539 CNS) of 69.4 µM and a GI50 (SK-MEL-28 melanoma) of 72.8 µM. The TGI (SK-MEL-28 melanoma) was > 100 µM, the GI50 (SK-MEL-5 melanoma) was 17.8 µM and the TGI (SK-MEL-5 melanoma) was 55.5 µM. The GI50 (SK-OV-3 ovarian) was 35.9 µM, the TGI (SK-OV-3 ovarian) was > 100 µM and the GI50 (SN12C renal) was 13.4 µM. For the same compound, the TGI (SN12C renal) was 86.9 µM, the GI50 (SNB-19 CNS) was 44.6 µM and the TGI (SNB-19 CNS) was > 100 µM. It also gave a GI50 (SNB-75 CNS) of 12.1 µM, a TGI (SNB-75 CNS) of 38.3 µM and a GI50 (SR leukemia) of 31.4 µM. For the same compound, the TGI (SR leukemia) was 50.9 µM, the GI50 (SW-620 colon) was 77.4 µM and the TGI (SW-620 colon) was > 100 µM. It also gave a GI50 (T-47D breast) of 16.8 µM, a TGI (T-47D breast) of 78.7 µM and a GI50 (TK-10 renal) of 51.5 µM. The TGI (TK-10 renal) was > 100 µM, the GI50 (U251 glioblastoma) was 30.7 µM and the TGI (U251 glioblastoma) was > 100 µM. The GI50 (UACC-257 melanoma) was 38.3 µM, the TGI (UACC-257 melanoma) was > 100 µM and the GI50 (UACC-62 melanoma) was 39.7 µM. For the same compound, the TGI (UACC-62 melanoma) was > 100 µM, the GI50 (UO-31 renal) was 15.9 µM and the TGI (UO-31 renal) was 71.1 µM.

Source: PubChem BioAssay (NCI)
